Tests used:
[1] = system: C. reinhardtii; test: Growth inhibition of C. reinhardtii by hydrazones and isolated metal-hydrazone complexes, TAP Cu minus medium (Example 12); assay type: cell-based, Chlamydomonas reinhardtii; settings: for inhibition of growth at 1 µg/mL: Chlamydomonas reinhardtii, parent hydrazone 1 μg/mL, read-out: Hydrazone % Inhn.
Procedure: In vitro toxicity assays against C. reinhardtii CC-1928 (wild type mt+137c green in dark subclone) obtained from the Chlamydomonas Resource Center at Duke University were conducted using TAP liquid growth medium described by Gorman and Levine Proc. Natl. Acad. Sci. USA 1965, 54, 1665-1669 except that CuSO4.5H2O, normally included as a component of Hutner's trace element stock solution (Hutner et al. Proc. Am. Philos. Soc. 1950, 94, 152-170), was omitted. The TAP medium lacking Cu (TAP Cu minus) was prepared by adding 400 mg NH4Cl, 10 mL of 100× Tris-Acetate (242 g Tris-base and 100 mL glacial acetic acid in 1000 mL milli Q water), and 8.3 mL of 120.5× phosphate buffer (14.34 g K2HPO4 and 7.26 g KH2PO4 in 1000 mL milli Q water) to milli Q water to make a total volume of 1 liter. The medium was treated with 0.5 g Chelex 100 resin (Bio-Rad Analytical grade, 50-100 mesh, sodium form, cat#142-2822) by stirring at room temperature for 1 hour. 900 mL were decanted and 45.9 mg of CaCl2.2H2O, 90 mg of MgSO4.7H2O and 0.9 mL Hutner's trace elements lacking CuSO4.5H2O were added and the solution was filter-sterilized. Medium containing copper (TAP Cu plus) was prepared by adding CuCl2.2H2O to the TAP Cu minus medium at 20 μM. Test compounds were dissolved in dimethylsulfoxide (DMSO) at 2 mg/mL then dilutions in TAP Cu minus and TAP Cu plus media were prepared in sterilized microcentrifuge tubes at 2 μg/mL. 100 μL aliquots of diluted compound were dispensed into flat-bottomed 96-well microtiter plates. C. reinhardtii was maintained under 12 h of light on TAP agar plates at 18° C. A loopful of cells was added to 50 mL of TAP Cu minus medium and the culture incubated with shaking at 200 rpm at 27° C. for 24 h. The culture (10 to 20 mL aliquot) was centrifuged in a bench centrifuge at 2000 rpm for 2 min. The resulting cell pellet was resuspended in 5 mL sterile milli Q water (which had been treated with Chelex 100 resin using 0.5 g resin per liter of water by stirring at room temperature for 1 h), and recentrifuged. The cells were resuspended in TAP Cu minus medium, and the suspension adjusted to 2×10^5 spores per mL. Microtiter plates containing compounds as described above were inoculated with 100 μL of this cell suspension and the plates incubated at 27° C. for 48 h before assessing algal growth by measuring light scattering in a NepheloStar plate-reader. Growth inhibition was determined by comparing growth in the presence of test compound with growth in control wells lacking test compound. Hydrazones and their isolated metal complexes were compared with respect to their in vitro activity toward C. reinhardtii and the cyanobacterium (blue-green alga) Synechocystis sp. strain 6803. Metal complexes of hydrazones were prepared by precipitation from ethanol with various metal salts at 1:1, 2:1 or 3:1 molar ratios, as described in general by Ainscough, Brodie, Dobbs, Ranford, and Waters (Inorganica Chimica Acta 1998, 267, 27-38, which is expressly incorporated by reference herein). In vitro assays against C. reinhardtii were conducted as described in Example 10 using TAP Cu minus medium. Growth inhibition was determined by comparing growth in the presence of test compound with growth in control wells lacking test compound. Results for growth inhibition of C. reinhardtii by hydrazones and corresponding isolated metal complexes (each at 1 μg/mL) are shown in Table 6.

[2] = system: C. reinhardtii CC-1928; test: Effect of copper on activity of hydrazones: in vitro growth inhibition of C. reinhardtii in TAP Cu minus / TAP Cu plus medium (Example 10); assay type: cell-based, Chlamydomonas reinhardtii; settings: test compound 1 μg/mL, 48 h; for inhibition of growth at 1 µg/mL: Chlamydomonas reinhardtii, TAP Cu minus medium, read-out: % Inhn. Minus Copper Observed; for % Inhn. Plus Copper Observed: TAP Cu plus medium (CuCl2)
Procedure: In vitro toxicity assays against C. reinhardtii CC-1928 (wild type mt+137c green in dark subclone) obtained from the Chlamydomonas Resource Center at Duke University were conducted using TAP liquid growth medium described by Gorman and Levine Proc. Natl. Acad. Sci. USA 1965, 54, 1665-1669 except that CuSO4.5H2O, normally included as a component of Hutner's trace element stock solution (Hutner et al. Proc. Am. Philos. Soc. 1950, 94, 152-170), was omitted. The TAP medium lacking Cu (TAP Cu minus) was prepared by adding 400 mg NH4Cl, 10 mL of 100× Tris-Acetate (242 g Tris-base and 100 mL glacial acetic acid in 1000 mL milli Q water), and 8.3 mL of 120.5× phosphate buffer (14.34 g K2HPO4 and 7.26 g KH2PO4 in 1000 mL milli Q water) to milli Q water to make a total volume of 1 liter. The medium was treated with 0.5 g Chelex 100 resin (Bio-Rad Analytical grade, 50-100 mesh, sodium form, cat#142-2822) by stirring at room temperature for 1 hour. 900 mL were decanted and 45.9 mg of CaCl2.2H2O, 90 mg of MgSO4.7H2O and 0.9 mL Hutner's trace elements lacking CuSO4.5H2O were added and the solution was filter-sterilized. Medium containing copper (TAP Cu plus) was prepared by adding CuCl2.2H2O to the TAP Cu minus medium at 20 μM. Test compounds were dissolved in dimethylsulfoxide (DMSO) at 2 mg/mL then dilutions in TAP Cu minus and TAP Cu plus media were prepared in sterilized microcentrifuge tubes at 2 μg/mL. 100 μL aliquots of diluted compound were dispensed into flat-bottomed 96-well microtiter plates. C. reinhardtii was maintained under 12 h of light on TAP agar plates at 18° C. A loopful of cells was added to 50 mL of TAP Cu minus medium and the culture incubated with shaking at 200 rpm at 27° C. for 24 h. The culture (10 to 20 mL aliquot) was centrifuged in a bench centrifuge at 2000 rpm for 2 min. The resulting cell pellet was resuspended in 5 mL sterile milli Q water (which had been treated with Chelex 100 resin using 0.5 g resin per liter of water by stirring at room temperature for 1 h), and recentrifuged. The cells were resuspended in TAP Cu minus medium, and the suspension adjusted to 2×10^5 spores per mL. Microtiter plates containing compounds as described above were inoculated with 100 μL of this cell suspension and the plates incubated at 27° C. for 48 h before assessing algal growth by measuring light scattering in a NepheloStar plate-reader. Growth inhibition was determined by comparing growth in the presence of test compound with growth in control wells lacking test compound. Results for growth inhibition by test compounds at 1 μg/mL in TAP Cu plus medium (% Inhn Plus Copper Observed) were compared with predicted values (% Inhn Plus Copper Predicted) that were calculated using the formula set forth by S. R. Colby in Weeds 1967, 15, 20-22 based on results obtained for the same compounds in TAP Cu minus medium (% Inhn Minus Copper Observed). […] Results illustrate that hydrazones and copper produce a synergistic algicidal effect towards C. reinhardtii.

[3] = system: Synechocystis sp. strain 6803; test: Effect of copper on activity of hydrazones: in vitro growth inhibition of Synechocystis in BG-11 Cu minus / Cu plus medium (Example 11); assay type: cell-based; settings: Test Concn. 0.05 μg/mL, 72 h; for inhibition of growth at 0.05 µg/mL: Synechocystis, BG-11 Cu minus medium, read-out: % Inhn. Minus Copper Observed; for % Inhn. Plus Copper Observed: BG-11 Cu plus medium
Procedure: In vitro toxicity assays against the cyanobacterium (blue-green alga) Synechocystis sp. strain 6803 were conducted using BG-11 medium except that copper micronutrient, normally included as CuSO4.5H2O, was omitted. The medium, termed BG-11 Cu minus, was prepared by dissolving 1.5 g NaNO3, 40 mg K2HPO4, 6 mg citric acid, 1 mg Na2EDTA and 20 mg Na2CO3 in 1 liter of milli Q water and treating the solution with 0.5 g Chelex 100 resin (Bio-Rad Analytical grade, 50-100 mesh, sodium form, cat#142-2822) by stifling at room temperature for 1 h. 900 mL were decanted and 67.5 mg MgSO4.7H2O, 32.4 mg […], 5.4 mg ferric ammonium citrate and 0.9 mL trace metal mix A5 without copper (2.86 g H3BO3, 1.81 g MnCl2.4H2O, 222 mg ZnSO4.7H2O, 390 mg Na2MoO4.2H2O and Co(NO3)2.6H2O in 1 L Milli Q water) was added. The pH was adjusted to 7.1 and the medium was filter-sterilized. Medium containing copper (BG-11 Cu plus) was prepared by adding CuCl2.2H2O to the BG-11 Cu minus medium at 0.2 μM. Test compounds were dissolved in dimethylsulfoxide (DMSO) at 2 mg/mL then appropriate dilutions in BG-11 Cu minus and BG-11 Cu plus media were prepared in sterilized microcentrifuge tubes. 100 μL aliquots were dispensed into flat-bottomed 96-well microtiter plates. Synechocystis was maintained under 24 h of light on BG-11 agar plates at 27° C. A loopful of cells was added to 50 mL of BG-11 Cu minus growth medium and the culture was incubated with shaking at 200 rpm at 27° C. for 24 h. The culture (10 to 20 mL aliquot) was centrifuged in a bench centrifuge at 2400 rpm for 2 min. The resulting cell pellet was resuspended in 5 mL sterile milli Q water (which had been treated with Chelex 100 resin using 0.5 g resin per liter of water by stirring at room temperature for 1 h), and recentrifuged. The cells were resuspended in BG-11 Cu minus medium, and the suspension adjusted to 4×10^5 spores per mL. Microtiter plates containing compounds as described above were inoculated with 100 μL of this cell suspension and the plates incubated at 27° C. for 72 h before assessing algal growth by measuring light scattering in a NepheloStar plate reader. Growth inhibition was determined by comparing growth in the presence of test compound with growth in control wells lacking test compound. Results for growth inhibition by test compounds in BG-11 Cu plus medium (% Inhn Plus Copper Observed) were compared with predicted values (% Inhn Plus Copper Predicted) that were calculated using the formula set forth by S. R. Colby in Weeds 1967, 15, 20-22 based on-results obtained for the same compounds in BG-11 Cu minus medium (% Inhn Minus Copper Observed) and the inhibition attributed to copper chloride alone, as determined by comparing growth in copper-minus and copper-plus media without any test compound across experiments. Results illustrate that hydrazones and copper produce a synergistic algicidal effect towards Synechocystis.

O=C(N/N=C/c1cc(Cl)cc(C(F)(F)F)c1O)c1ccc(Cl)cc1 [Compound 66]
inhibition of growth at 1 µg/mL [1]: -4% | melting point: 232 to 234 °C | inhibition of growth at 1 µg/mL [2]: -4% | % Inhn. Plus Copper Observed [2]: 97%

C/C(=N\NC(=O)c1cccc(Cl)c1)c1cc(Cl)cc(Cl)c1O [Compound 65]
inhibition of growth at 1 µg/mL [1]: -5% | melting point: 245 to 246 °C | inhibition of growth at 1 µg/mL [2]: -5% | % Inhn. Plus Copper Observed [2]: 97%

C/C(=N\NC(=O)c1cccc(C)c1)c1cc(Cl)cc(Cl)c1O.[Cl-].[Cl-].[Cu+2] [Compound 90]
Complex % Inhn. ([1]; isolated metal complex 1 μg/mL): 49%

Cc1cccc(C(=O)N/N=C/c2cccc(Cl)c2O)c1 [Compound 50]
inhibition of growth at 0.05 µg/mL [3]: -7% | % Inhn. Plus Copper Observed [3]: 95% | melting point: 166 to 169 °C | inhibition of growth at 1 µg/mL [2]: 6% | % Inhn. Plus Copper Observed [2]: 97%

O=C(N/N=C/c1cc(Cl)cc(Cl)c1O)c1ccc(Cl)cc1 [Compound 64]
inhibition of growth at 1 µg/mL [1]: -5% | inhibition of growth at 1 µg/mL [2]: -5% | % Inhn. Plus Copper Observed [2]: 97%

Cc1cccc(C(=O)N/N=C/c2ccc(Cl)c(Cl)c2O)c1 [Compound 38]
inhibition of growth at 0.05 µg/mL [3]: 49% | % Inhn. Plus Copper Observed [3]: 93% | melting point: 212 to 214 °C | inhibition of growth at 1 µg/mL [2]: 15% | % Inhn. Plus Copper Observed [2]: 94%

O=C(N/N=C/c1cc(Cl)cc(Cl)c1O)c1cccc(C(F)(F)F)c1 [Compound 22]
inhibition of growth at 0.05 µg/mL [3]: 48% | % Inhn. Plus Copper Observed [3]: 94% | melting point: 165 to 169 °C | inhibition of growth at 1 µg/mL [2]: -14% | % Inhn. Plus Copper Observed [2]: 96%

C/C(=N\NC(=O)c1ccccc1)c1ccccc1O [Compound 2]
inhibition of growth at 0.05 µg/mL [3]: -8% | % Inhn. Plus Copper Observed [3]: 97% | melting point: 185 to 187 °C | inhibition of growth at 1 µg/mL [2]: 10% | % Inhn. Plus Copper Observed [2]: 95%

O=C(N/N=C/c1cc(C(F)(F)F)cc(Cl)c1O)c1ccccc1O [Compound 30]
inhibition of growth at 0.05 µg/mL [3]: 0% | % Inhn. Plus Copper Observed [3]: 92% | melting point: 258 to 260 °C | inhibition of growth at 1 µg/mL [2]: 29% | % Inhn. Plus Copper Observed [2]: 92%

O=C(N/N=C/c1c(Cl)ccc(Cl)c1O)c1ccc(F)cc1 [Compound 43]
inhibition of growth at 0.05 µg/mL [3]: 23% | % Inhn. Plus Copper Observed [3]: 95% | melting point: 264 to 267 °C | inhibition of growth at 1 µg/mL [2]: 9% | % Inhn. Plus Copper Observed [2]: 93%

Cc1cccc(C(=O)N/N=C/c2cccc(C(F)(F)F)c2O)c1 [Compound 33]
inhibition of growth at 0.05 µg/mL [3]: 29% | % Inhn. Plus Copper Observed [3]: 97% | melting point: 188 to 190 °C | inhibition of growth at 1 µg/mL [2]: 21% | % Inhn. Plus Copper Observed [2]: 97%

O=C(N/N=C/c1cc(Cl)cc(Cl)c1O)c1ccc2ccccc2c1 [Compound 10]
inhibition of growth at 0.05 µg/mL [3]: 44% | % Inhn. Plus Copper Observed [3]: 95% | melting point: 215 to 217 °C | inhibition of growth at 1 µg/mL [2]: 24% | % Inhn. Plus Copper Observed [2]: 93%
